Assay results published in US20200291082A1, “PREVENTION AND TREATMENT OF GRAFT-VERSUS-HOST-DISEASE WITH DEFENSINS” (priority 2017, published 2020).
Entries after “also recorded” stand apart in the source; their conditions may differ. No end group written: not given here.

Assays:
[1] = tested on: Dextran Sodium Sulphate induced colitis; experiment: prophylactic murine 10-day oral Dextran Sodium Sulphate induced colitis model, oral hBD2 versus oral prednisolone (Example 2); type: in vivo, C57BL/6 mice; settings: for histological score, compared with prednisolone: all three oral hBD2 dose groups versus prednisolone 1 mg/kg; for body weight loss / body weight change: all three oral hBD2 dose levels (0.05, 0.5, 5 mg/kg twice per day), 10 days; for histological score: versus vehicle, Prednisolone 1 mg/kg twice per day p.o., oral hBD2 all doses
Method: Anti-inflammatory effect of oral administration of hBD2 versus oral prednisolone in a prophylactic murine, 10-day, oral Dextran Sodium Sulphate induced colitis model.
50 male C57BL/6 mice housed in groups of five per cage were allocated to 5 different treatment groups. All animals had their drinking water supplemented with DSS 2% for 7 days to induce colitis resulting in significant inflammation and injury of the colonic tissue. The animals were treated with oral hBD2 dosed at three different dose levels twice per day or prednisolone 1 mg/kg twice per day or PBS as vehicle for 10 days.
(§1) A disease activity index (DAI) scoring system was applied for clinical assessment (FIG. 7). The animals were sacrificed on day 10 and colon removed for histological assessment employing a histological scoring system (FIG. 8).

[2] = tested on: Trinitrobenzene Sulfonic Acid induced colitis; experiment: prophylactic murine 8-day Trinitrobenzene Sulfonic Acid induced colitis model (Example 3); type: in vivo, BALB/cByJ mice
Method: Anti-inflammatory effect of s.c. administration of hBD2 versus s.c. prednisolone in a prophylactic murine, 8-day Trinitrobenzene Sulfonic Acid induced colitis model.
105 male BALB/cByJ mice housed in groups of five per cage were allocated to 7 different treatment groups. Colitis was induced by intracolonic administration of trinitrobenzene sulfonic acid on day 0 under light anaesthesia resulting in significant inflammation and injury of the colonic tissue. The animals were treated with hBD2 at four different dosing levels once daily (1 mg/kg, 0.3 mg/kg, 0.1 mg/kg, and 0.03 mg/kg) or Prednisolone 10 mg/kg once daily dosed subcutaneously under the dorsal skin or PBS as vehicle for 7 days.
as §1

[3] = tested on: Dextran Sodium Sulphate induced colitis; experiment: prophylactic murine 7-day Dextran Sodium Sulphate induced colitis model, oral and s.c. hBD2 versus oral cyclosporine (Example 4); type: in vivo, C57BL/6 mice
Text: Anti-inflammatory effect of oral and s.c. administration of hBD2 versus oral cyclosporine in a prophylactic, murine, 7-day, Dextran Sodium Sulphate induced colitis model.
80 male C57BL/6 mice housed in groups of five per cage were allocated to 7 different treatment groups. All animals had their drinking water supplemented with DSS 3% for 7 days to induce colitis characterized by epithelial damage, disruption of crypt architecture and a moderate inflammation characterized by accumulation of mononuclears and neutrophils in mucosa and submucosa. The animals were treated with oral hBD2 dosed at 0.6 mg/kg BID or 0.4 mg/kg TID; hBD2 dosed s.c. at 0.15 mg/kg BID or 0.1 mg/kg TID; or cyclosporine 50 mg/kg OD or water for 7 days.
Clinical assessment was conducted as per a scoring system (0=no blood in stool; 1=evidence of blood in stool and 2=severe bleeding). The animals were sacrificed on day 7 and colon removed for histological assessment.

[4] = tested on: Dextran Sodium Sulphate induced colitis; experiment: therapeutic murine 14-day Dextran Sodium Sulphate induced colitis model (Example 5); type: in vivo, C57BL/6 mice
Method: Anti-inflammatory effect of s.c. administration of hBD2 versus intraperitoneal anti TNF-α and intraperitoneal dexamethasone in a therapeutic, murine, 14-day, Dextran Sodium Sulphate induced colitis model.
70 male C57BL/6 mice housed in groups of five per cage were allocated to 7 different treatment groups. All animals had their drinking water supplemented with DSS 2% for 14 days to induce colitis resulting in significant inflammation and injury of the colonic tissue. The animals were treated with hBD2, 0.1 mg/kg s.c. BID; 0.1 mg/kg s.c. OD or 1.2 mg/kg i.v. […]
A disease activity index (DAI) scoring system was applied for clinical assessment (FIG. 7). The animals were sacrificed on day 14 and colon removed for histological assessment employing a histological scoring system (FIG. 8)

[5] = tested on: bacteria at the surface of the intestinal mucosa; experiment: anti microbial effect of orally administered defensins, mucin immunostaining and localization of bacteria by FISH (Example 16); type: in vivo; settings: compared with mice on low fat or western diet
Method: Anti microbial effect of orally administered defensins (HD5 and hBD-2).
Mucus immunostaining was paired with fluorescent in situ hybridization (FISH), as previously described in order to analyze bacteria localization at the surface of the intestinal mucosa. Briefly, colonic tissues (proximal colon, 2nd cm from the cecum) without fecal material were placed in methanol-Carnoy's fixative solution (60% methanol, 30% chloroform, 10% glacial acetic acid) for a minimum of 3 hours at room temperature. Tissues were then washed in methanol 2×30 min, ethanol 2×15 min, ethanol/xylene (1:1), 15 min and xylene 2×15 min, followed by embedding in Paraffin with a vertical orientation. Five pm sections were performed and dewax by preheating at 60° C. for 10 min, followed by xylene 60° C. for 10 min, xylene for 10 min and 99.5% ethanol for 10 minutes. Hybridization step was performed at 50° C. overnight with EUB338 probe (5′-GCTGCCTCCCGTAGGAGT-3′, with a 5′ labeling using Alexa 647) diluted to a final concentration of 10 μg/mL in hybridization buffer (20 mM Tris-HCl, pH 7.4, 0.9 M NaCl, 0.1% SDS, 20% formamide). After washing 10 min in wash buffer (20 mM Tris-HCl, pH 7.4, 0.9 M NaCl) and 3×10 min in PBS, PAP pen (Sigma-Aldrich) was used to mark around the section and block solution (5% fetal bovine serum in PBS) was added for 30 min at 4° C. […]

[6] = all four hBD2 dosing groups (oral 0.6 mg/kg BID, 0.4 mg/kg TID; s.c. 0.15 mg/kg BID, 0.1 mg/kg TID), cyclosporine 50 mg/kg OD, 7 days

In the case of “human beta defensin 2 (GIGDPVTCLKSGAICHPVFCPRRYKQIGTCGLPGTKCCKKP; not fully specified (bridges); ends and bridges not checked; listed as Homo sapiens) [hBD2]”, the “disease activity index score, compared with prednisolone” value ([1]; FIG. 11, orally administered hBD2 versus prednisolone 1 mg/kg) is reported as “statistically significant superiority”, the “histological score, compared with prednisolone” value [1] is reported as “significantly better than Prednisolone” and the “histological score, compared with prednisolone” value ([1]; listed as HBD2) is reported as “on par with prednisolone 1 mg/kg”. The “body weight loss / body weight change” value [1] was “dramatically reduced loos of body weight”, the “body weight loss / body weight change” value ([1]; listed as HBD2hBD2) was “weight preserving effect” and the body weight loss ([1]; high dose group hBD2 5 mg/kg BID oral) was “most pronounced”. The “disease activity index (DAI)” value ([1]; high dose hBD2 5 mg/kg BID oral, compared with lower doses and Prednisolone) was “significantly better effect on DAI”, the “disease activity index (DAI)” value ([1]; two lower dose levels of oral hBD2 (0.05, 0.5 mg/kg twice per day)) was “statistically significant effect on DAI on par with Prednisolone” and the histological score [1] was “statistically significant effect on histological score”. The histological score ([1]; listed as HBD2) was “statistical significant effect”, the histological score ([2]; FIG. 13, 0.03 and 0.1 mg/kg hBD2 (Group E and F), on par with prednisolone 10 mg/kg) was “statistical significant effect” and the histological score ([2]; Prednisolone 10 mg/kg s.c. once daily, hBD2 at 0.1, 0.3 and 1 mg/kg s.c. once daily) was “highly statistically significant clinical effect on histological score”. For the same substance, the body weight ([2]; hBD2 0.03 and 0.1 mg/kg OD s.c.) was “highly statistically significant increase in body weight”, the “clinical score, s.c. versus oral dosing” value ([3]; FIG. 15) was “seemed more efficacious than oral dosing” and the clinical scores [3, 6] was “highly statistically significant improvement; also recorded: statistical significant effect of hBD2 on par with cyclosporine”. For the same substance, the “maintenance of colon length” value [3, 6] was “highly statistically significant improvement; also recorded: statistical significant effect of hBD2 on par with cyclosporine”, the “clinical score, TID versus BID dosing” value ([3]; both administration routes) was “more efficacious than BID dosing; also recorded: superiority of TID dosing of hBD2 over BID dosing” and the “histological score, compared with references” value ([4]; FIG. 16, hBD2 0.1 mg/kg versus dexamethasone 1 mg/kg and mouse anti TNF-α 300 μg/mouse) was “on par with dexamethasone 1 mg/kg and superior to mouse anti TNF-α 300 μg/mouse”. The “disease activity index (DAI)” value ([4]; hBD2 0.1 mg s.c. OD, Dexamethasone 1 mg/kg i.p. OD, day 8 to day 14) was “statistically significant effect on DAI”, the histological score ([4]; hBD2 0.1 mg/kg s.c. OD, Dexamethasone 1 mg/kg i.p. OD, colon day 14) was “statistically significant effect on histological score; also recorded: statistical significant effect” and the “lysis zone, distance between intestinal wall and bacterial population” value [5] was “profound effect on the distance”.
